Measurements from patent publication US20030064960A1, “Medicine for inducing osteogenesis” (priority 1999, published 2003).

Assays:
[1] = test system: RC-I,II cell (cultured cell derived from rat calvaria); experiment: Osteogenesis inducing activity on cultured cell derived from rat calvaria (northern blotting of ALP, COL1 and OC genes); type: cell-based
Procedure: (1) Preparation of Cultured Cell Derived from Rat Calvaria
Cultured cell derived from rat calvaria was isolated from Wister rats (obtained from sankyo-rabo) of three days old by following method.
The rats were killed, decapitated and their calvarias were picked out. The tissue was flaked by a tweezer and suspended into a solution for enzyme treatment, containing 0.04% of EDTA, collagenase (crude type 1A: SIGMA: 0.1%) and trypsin (0.05%). The sample was treated in the enzyme solution for 30 min under temperature of 37° C. Then, the enzyme solution was harvested and cells extricated into the enzyme solution was harvested by centrifugation (RC-I). The enzyme solution was added again and digested at 37° C. for 30 min. Cells extricated into the enzyme solution was designated as RC-II.
The RC-I and RC-II thus obtained were mixed and used for following experiments. The cell mixture of RC-I and RC-II was designated as RC-I,II cell in following description. […] The RC-I and RC-II described above hardly expressed alkaline phosphatase (ALP), type 1 collagen (COL1) and osteocarcin (OC) gene. The genes described above are used for marker genes of osteoblast (T. R. Arnett et al, Methods in Bone Biology, 1988, Chapman & Hall).
(3) Estimation of Osteogenesis Inducing Activity of the Lipid-bound Glycosaminoglycan
HA-PE produced as described above was dissolved in hank's solution at concentration of 5 μg/ml and 2 ml of hank's solution containing HA-PE was poured into polystyrene culture dish with diameter of 10 cm. The dish was coated by settling the dish for 16 hours at 4° C. The dish treated by hank's solution without HA-PE was used for control.
The RC-I,II cell suspension, prepared as described above, was poured on the dish at the density of 1×10^4 cells/cm^2. The cell was cultured in α-minimum eagle medium (MEM: GIBCO) solution containing 1% anti-biotics, anti-mycoplasma solution (containing 50 μg/ml ascorbic acid and 5 mM β-glycerophosphate, GIBCO) and 10% fatal bovine serum (FBS: GIBCO).
At the time just after cell reached to confluent, one week after confluent and two weeks after confluent, total RNA of the cell was extracted by guanidine-phenol-chloroform method. The expression of ALP, COL1 and OC genes was analyzed by northern blotting method. The expression of these genes are used as an indicator of osteoblast differentiation. In FIG. 1, Et-Br indicates control sample obtained by staining of ribosomal RNA by ethydium bromide. Moreover, digitalized result calculated from northern blotting of FIG. 1 by Quantity One program (TOYOBO) was shown in FIG. 2 as a value standardized against the control described above.

[2] = hyaluronic acid with a molecular weight of 20,000 to 60,000, at a concentration of 0.5 mg/ml; cited from earlier work
[3] = RC-I,II cell cultured in dish coated with 5 μg/ml HA-PE, northern blotting at confluent, one and two weeks after confluent, vs dish treated without HA-PE

L-(α-phosphatidyl)ethanolamine dipalmytoyl conjugated hyaluronic acid [HA-PE]
induction of osteocyte differentiation ([1]; RC-I,II cell cultured in HA-PE coated dish (5 μg/ml)): significant induction of osteocyte differentiation | expression of ALP gene [1, 3]: predominant increase | expression of COL1 gene [1, 3]: predominant increase | expression of OC gene [1, 3]: predominant increase

hyaluronic acid
osteogenesis induction activity [2]: osteogenesis induction activity
